Test results as given in PubChem BioAssay (NCI).
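96-well plates; 48 h exposure; 5 concentrations. Endpoints by linear interpolation between flanking doses. Not reached: highest tested concentration assigned. TGI: concentration producing complete growth inhibition.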

Columns and labels:
Test in all cases: NCI anticancer screen, dose series, 48 h
[1] = tested on: A498 renal
[2] = tested on: SW-620 colon
[3] = tested on: HL-60(TB) leukemia
[4] = tested on: CAKI-1 renal
[5] = tested on: K-562 leukemia
[6] = tested on: MCF7 breast
[7] = tested on: CCRF-CEM leukemia
[8] = tested on: HS 578T breast
[9] = tested on: SF-295 CNS
[10] = tested on: MDA-MB-435
[11] = tested on: MDA-N
[12] = tested on: OVCAR-4 ovarian
[13] = tested on: UACC-62 melanoma
[14] = tested on: RXF 393 renal
[15] = tested on: OVCAR-8 ovarian
[16] = tested on: BT-549 breast
[17] = tested on: IGROV1 ovarian
[18] = tested on: SK-MEL-5 melanoma
[19] = tested on: DU-145 prostate
[20] = tested on: ACHN renal
[21] = tested on: UO-31 renal
[22] = tested on: HCT-15 colon
[23] = tested on: SK-MEL-2 melanoma
[24] = tested on: HCT-116 colon
[25] = tested on: NCI-H226 lung
[26] = tested on: SF-539 CNS
[27] = tested on: SR leukemia
[28] = tested on: 786-0 renal
[29] = tested on: MOLT-4 leukemia
[30] = tested on: SF-268 CNS
[31] = tested on: SN12C renal
[32] = tested on: SK-MEL-28 melanoma
[33] = tested on: A549 NSCLC
[34] = tested on: TK-10 renal
[35] = tested on: RPMI-8226 leukemia
[36] = tested on: MDA-MB-231 breast
[37] = tested on: NCI/ADR-RES ovarian
[38] = tested on: OVCAR-5 ovarian
[39] = tested on: NCI-H23 lung
[40] = tested on: NCI-H460 lung
[41] = tested on: OVCAR-3 ovarian
[42] = tested on: KM12 colon
[43] = tested on: M14 melanoma
[44] = tested on: U251 CNS
[45] = tested on: MALME-3M melanoma
[46] = tested on: COLO 205 colon
[47] = tested on: NCI-H522 lung
[48] = tested on: SNB-75 CNS
[49] = tested on: SK-OV-3 ovarian
[50] = tested on: PC-3 prostate
[51] = tested on: HOP-92 NSCLC
[52] = tested on: T-47D breast
[53] = tested on: HT29 colon
[54] = tested on: LOX IMVI melanoma
[55] = tested on: HOP-62 NSCLC
[56] = tested on: EKVX NSCLC
[57] = tested on: UACC-257 melanoma
[58] = tested on: SNB-19 CNS
[59] = tested on: HCC-2998 colon
[60] = tested on: HOP-18 NSCLC
[61] = tested on: DMS 114 small cell lung
[62] = tested on: DLD-1 colon
[63] = tested on: M19-MEL melanoma
[64] = tested on: SNB-78 CNS
[65] = tested on: LXFL 529 NSCLC
[66] = tested on: KM20L2 colon

O=c1oc2ncccc2n1Cc1ccc([N+](=O)[O-])cc1
TGI [1]: > 100 µM | TGI [2]: > 100 µM | TGI [3]: > 100 µM | TGI [4]: > 100 µM | TGI [5]: > 100 µM | TGI [6]: > 100 µM | TGI [7]: > 100 µM | TGI [8]: > 100 µM | TGI [9]: > 100 µM | TGI [10]: > 100 µM | TGI [11]: > 100 µM | TGI [12]: > 100 µM | TGI [13]: > 100 µM | TGI [14]: > 100 µM | TGI [15]: > 100 µM | TGI [16]: > 100 µM | TGI [17]: > 100 µM | TGI [18]: > 100 µM | TGI [19]: > 100 µM | TGI [20]: > 100 µM | TGI [21]: > 100 µM | TGI [22]: > 100 µM | TGI [23]: > 100 µM | TGI [24]: > 100 µM | TGI [25]: > 100 µM | TGI [26]: > 100 µM | TGI [27]: > 100 µM | TGI [28]: > 100 µM | TGI [29]: > 100 µM | TGI [30]: > 100 µM | TGI [31]: > 100 µM | TGI [32]: > 100 µM | TGI [33]: > 100 µM | TGI [34]: > 100 µM | TGI [35]: > 100 µM | TGI [36]: > 100 µM | TGI [37]: > 100 µM | TGI [38]: > 100 µM | TGI [39]: > 100 µM | TGI [40]: > 100 µM | TGI [41]: > 100 µM | TGI [42]: > 100 µM | TGI [43]: > 100 µM | TGI [44]: > 100 µM | TGI [45]: > 100 µM | TGI [46]: > 100 µM | TGI [47]: > 100 µM | TGI [48]: > 100 µM | TGI [49]: > 100 µM | TGI [50]: > 100 µM | TGI [51]: > 100 µM | TGI [52]: > 100 µM | TGI [53]: > 100 µM | TGI [54]: > 100 µM | TGI [55]: > 100 µM | TGI [56]: > 100 µM | TGI [57]: > 100 µM

CCCCc1ccc(Nc2nc3c(ncn3C3OC(COC(C)=O)C(OC(C)=O)C3OC(C)=O)c(=O)[nH]2)cc1 (configuration not stated)
TGI [1]: > 100 µM | TGI [2]: 48.2 µM | TGI [3]: 55.6 µM | TGI [58]: 81.5 µM | TGI [4]: > 100 µM | TGI [5]: 38.5 µM | TGI [6]: 63.2 µM | TGI [7]: 35.1 µM | TGI [8]: 56 µM | TGI [9]: 53.1 µM | TGI [10]: 34.5 µM | TGI [11]: 35.4 µM | TGI [12]: 52.9 µM | TGI [13]: 34.7 µM | TGI [14]: 41.7 µM | TGI [15]: 34.7 µM | TGI [16]: 32.2 µM | TGI [17]: 37.7 µM | TGI [18]: 31.1 µM | TGI [19]: 90.6 µM | TGI [20]: > 100 µM | TGI [21]: > 100 µM | TGI [22]: > 100 µM | TGI [23]: 31 µM | TGI [24]: 31.9 µM | TGI [25]: 60.6 µM | TGI [26]: 57.9 µM | TGI [27]: 35.9 µM | TGI [28]: 32 µM | TGI [29]: 37.8 µM | TGI [30]: 37.7 µM | TGI [31]: 42.3 µM | TGI [33]: > 100 µM | TGI [34]: > 100 µM | TGI [35]: 48.9 µM | TGI [36]: 31.1 µM | TGI [37]: > 100 µM | TGI [38]: > 100 µM | TGI [39]: 32.5 µM | TGI [40]: 32.7 µM | TGI [41]: 31.6 µM | TGI [42]: 35.2 µM | TGI [43]: 41.2 µM | TGI [44]: 45.4 µM | TGI [45]: 36.8 µM | TGI [46]: 37.7 µM | TGI [47]: 32.8 µM | TGI [59]: 35.5 µM | TGI [49]: 71.1 µM | TGI [50]: 48.1 µM | TGI [51]: 30.4 µM | TGI [52]: 30 µM | TGI [53]: 37.5 µM | TGI [54]: 36 µM | TGI [55]: 35.5 µM | TGI [56]: > 100 µM | TGI [57]: 34.3 µM

Cc1c2cc[n+](COC(=O)c3ccccc3)cc2c(C)c2c1[nH]c1ccccc12
TGI [1]: 2.48 µM | TGI [3]: 2.72 µM | TGI [58]: 52.6 µM | TGI [5]: 1.52 µM | TGI [7]: 2.91 µM | TGI [15]: 2.11 µM | TGI [21]: 4.82 µM | TGI [26]: 1.48 µM | TGI [29]: 1.59 µM | TGI [31]: 1.79 µM | TGI [35]: 2.92 µM | TGI [38]: 2.39 µM | TGI [60]: 1.93 µM

O=C(NC(=O)c1cn(CCN2CCNCC2)c(=O)[nH]c1=O)OCc1ccccc1
TGI [61]: > 100 µM | TGI [2]: > 100 µM | TGI [3]: > 100 µM | TGI [4]: > 100 µM | TGI [5]: > 100 µM | TGI [7]: > 100 µM | TGI [9]: > 100 µM | TGI [12]: > 100 µM | TGI [13]: > 100 µM | TGI [15]: > 100 µM | TGI [18]: > 100 µM | TGI [20]: > 100 µM | TGI [62]: > 100 µM | TGI [22]: > 100 µM | TGI [24]: > 100 µM | TGI [25]: > 100 µM | TGI [26]: > 100 µM | TGI [27]: > 100 µM | TGI [29]: > 100 µM | TGI [30]: > 100 µM | TGI [31]: > 100 µM | TGI [33]: > 100 µM | TGI [63]: > 100 µM | TGI [35]: > 100 µM | TGI [38]: > 100 µM | TGI [39]: > 100 µM | TGI [64]: > 100 µM | TGI [40]: > 100 µM | TGI [41]: > 100 µM | TGI [42]: > 100 µM | TGI [43]: > 100 µM | TGI [44]: > 100 µM | TGI [45]: > 100 µM | TGI [46]: > 100 µM | TGI [65]: > 100 µM | TGI [47]: > 100 µM | TGI [48]: > 100 µM | TGI [49]: > 100 µM | TGI [51]: > 100 µM | TGI [53]: > 100 µM | TGI [54]: > 100 µM | TGI [55]: > 100 µM | TGI [56]: > 100 µM

C=CCC(C(=O)OC)C1(C(=O)OC)c2[nH]c3ccccc3c2CCN1Cc1ccccc1 (configuration not stated)
TGI [61]: > 100 µM | TGI [1]: > 100 µM | TGI [2]: > 100 µM | TGI [3]: > 100 µM | TGI [58]: > 100 µM | TGI [4]: > 100 µM | TGI [7]: > 100 µM | TGI [9]: > 100 µM | TGI [12]: > 100 µM | TGI [13]: > 100 µM | TGI [14]: > 100 µM | TGI [15]: > 100 µM | TGI [17]: > 100 µM | TGI [18]: > 100 µM | TGI [21]: > 100 µM | TGI [62]: > 100 µM | TGI [22]: > 100 µM | TGI [23]: > 100 µM | TGI [66]: > 100 µM | TGI [24]: > 100 µM | TGI [26]: > 100 µM | TGI [27]: > 100 µM | TGI [28]: > 100 µM | TGI [29]: > 100 µM | TGI [30]: > 100 µM | TGI [31]: > 100 µM | TGI [32]: > 100 µM | TGI [33]: > 100 µM | TGI [34]: > 100 µM | TGI [63]: > 100 µM | TGI [35]: > 100 µM | TGI [38]: > 100 µM | TGI [39]: > 100 µM | TGI [41]: > 100 µM | TGI [42]: > 100 µM | TGI [43]: > 100 µM | TGI [44]: > 100 µM | TGI [45]: > 100 µM | TGI [46]: > 100 µM | TGI [47]: > 100 µM | TGI [48]: > 100 µM | TGI [59]: > 100 µM | TGI [49]: > 100 µM | TGI [51]: 74.6 µM | TGI [53]: > 100 µM | TGI [55]: > 100 µM | TGI [56]: > 100 µM
